One block for each compound: values may come before it.
Legend:
[1] = molecular target: T1, Clostridium acetobutylicum DSM 1731 2-enoate reductase EREDCA, SEQ ID NO: 2 (Clostridium acetobutylicum, UniProt Q97DV0); test: Kinetics of purified EREDCA, NADH oxidation at 340 nm, anaerobic; format: biochemical; details: 4 to 28 mM
T1 sequence (Q97DV0 1-664): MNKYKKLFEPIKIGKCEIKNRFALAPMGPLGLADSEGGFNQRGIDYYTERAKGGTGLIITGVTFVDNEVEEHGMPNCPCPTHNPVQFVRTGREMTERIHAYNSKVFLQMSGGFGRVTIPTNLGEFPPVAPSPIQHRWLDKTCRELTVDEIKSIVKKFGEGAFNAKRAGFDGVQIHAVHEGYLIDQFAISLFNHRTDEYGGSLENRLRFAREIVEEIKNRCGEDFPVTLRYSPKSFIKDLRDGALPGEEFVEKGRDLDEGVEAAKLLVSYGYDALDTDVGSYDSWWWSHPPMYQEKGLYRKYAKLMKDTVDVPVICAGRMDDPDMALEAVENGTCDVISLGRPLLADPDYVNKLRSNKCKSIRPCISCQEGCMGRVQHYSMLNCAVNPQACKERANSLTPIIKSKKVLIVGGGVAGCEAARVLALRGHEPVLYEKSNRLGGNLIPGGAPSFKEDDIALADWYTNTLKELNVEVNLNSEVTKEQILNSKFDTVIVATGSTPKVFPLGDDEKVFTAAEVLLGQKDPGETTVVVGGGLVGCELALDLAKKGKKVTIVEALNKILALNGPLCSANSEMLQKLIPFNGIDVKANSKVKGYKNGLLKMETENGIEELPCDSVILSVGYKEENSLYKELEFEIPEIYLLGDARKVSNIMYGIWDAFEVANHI
Experimental: (§1) The C═C reducing activity of EREDs was examined. Enzyme activity of purified EREDs was measured spectrophotometrically in 96-well plates by following incubation for 3-5 min at 30° C. in the anaerobic chamber as described in M. Buhler, H. Simon, Hoppe-Seyler's Zeitschrift fur Physiologische Chemie 1982, 363, 609-625. Buffers and reagents were degassed and sparged with Ar. Reaction mixture contained potassium phosphate (100 mM and pH 7.0), NADH (0.5 mM), indicated substrates, and proteins (0.1-50 μg) in a final volume of 200 μL. Enzyme reactions were monitored by following the decrease in absorbance at 340 nm (ε340 nm=6,220/M·cm) due to oxidation of NADH to NAD+.
(§2) For in vitro biochemical characterization, enzyme activities of purified EREDs were measured with 2-hexenedioic acid, cis-cis-muconic acid, trans-trans muconic acid, trans-cinnamic acid, trans-2-methyl-2-butenoic acid, trans-2-butenoic acid, acrolein, 2-cyclohexen-1-one, and 3-methyl-2-cyclohexenone. […] [Feng, J. et al. Discovery and Characterization of BlsE, a Radical S-Adenosyl-L-methionine Decarboxylase Involved in the Blasticidin S Biosynthetic Pathway. PLoS ONE 8 (2013)].
(§3) To increase the dissolved substrate concentration, 2-hexenedioic acid was dissolved in a reaction mixture containing […] (final concentration) isopropanol, and kinetic constants of EREDBC and EREDCA were determined.

[2] = molecular target: Bacillus coagulans 36D1 2-enoate reductase EREDBC, SEQ ID NO: 1 (Heyndrickxia coagulans, UniProt A0AAN0T7I1); test: Kinetics of purified EREDBC, NADH oxidation at 340 nm, anaerobic; format: biochemical; details: for saturation by substrate: anaerobic, aqueous buffer
Experimental: as §1, §2
Kinetic studies of purified EREDBC were performed using 2-hexenedioic acid, 2-cyclohexen-1-one, 3-methyl-2-cyclohexenone, and trans-cinnamic acid as substrates (FIG. 10).
as §3

[3] = test system: Rhodococcus jostii aldehyde reductase RHA1_ro05279, SEQ ID NO: 47; test: AR kinetics, aldehyde reduction followed by NAD(P)H oxidation; format: biochemical
Excerpt: 28 aldehyde reductases from different bacteria were cloned and overexpressed in E. coli. Enzymes purified using affinity chromatography on Ni-NTA resin were screened for reductase activity with adipaldehyde and butyraldehyde in presence of both NADPH and NADH (Table 5). Butyraldehyde was used as a substrate substitute for 4-oxo-butanal, which is not commercially available. Reactions were followed spectrophotometrically, by cofactor oxidation at 340 nm.
(§4) Enzyme activity of purified ARs was measured spectrophotometrically in 96-well plates Reaction mixtures contained 100 mM HEPES buffer (pH 7.5), 0.4 mM NADH/NADPH, 10 mM adipaldehyde or butylaldehyde, and proteins (10 μg for adipaldehyde screen, 2 μg for butyraldehyde screen) in a final volume of 200 μL Reaction mixture for adipaldehyde screening contained 1.8% DMSO. Enzyme reactions were monitored by following the decrease in absorbance at 340 nm (ε340 nm=6,220/M·cm) due to oxidation of NAD(P)H to NAD(P)+.
ARs RHA1_ro05279, PA1146, SC00229, PP_3370 were characterised for saturation with adipaldehyde, PP_3370, PSPTO_2097, RHA1_ro05279, SC00229, TM_0111, PA1146 were characterised for butyraldehyde saturation (Table 10). […] For both substrates maximal kcat/Km with minimal Km values was shown by AR PP 3370 from Pseudomonas putida.

[4] = AT activity coupled with alanine and glutamate dehydrogenases; format: biochemical; details: 10 mM adipaldehyde, alanine and glutamate amino-donors; ND = no activity was detected
[5] = molecular target: Mycobacterium paratuberculosis carboxylate reductase MAP_1040c, SEQ ID NO: 38 (Mycobacterium avium, UniProt A0ACD7BNV2); test: CAR kinetics, ATP/NADPH dependent carboxylic acid reduction
[6] = molecular target: T2, Mycobacterium smegmatis carboxylate reductase MSMEG_2956, SEQ ID NO: 70 (Mycolicibacterium smegmatis, UniProt A0QWI7); test: as above
T2 sequence (A0QWI7 1-1168): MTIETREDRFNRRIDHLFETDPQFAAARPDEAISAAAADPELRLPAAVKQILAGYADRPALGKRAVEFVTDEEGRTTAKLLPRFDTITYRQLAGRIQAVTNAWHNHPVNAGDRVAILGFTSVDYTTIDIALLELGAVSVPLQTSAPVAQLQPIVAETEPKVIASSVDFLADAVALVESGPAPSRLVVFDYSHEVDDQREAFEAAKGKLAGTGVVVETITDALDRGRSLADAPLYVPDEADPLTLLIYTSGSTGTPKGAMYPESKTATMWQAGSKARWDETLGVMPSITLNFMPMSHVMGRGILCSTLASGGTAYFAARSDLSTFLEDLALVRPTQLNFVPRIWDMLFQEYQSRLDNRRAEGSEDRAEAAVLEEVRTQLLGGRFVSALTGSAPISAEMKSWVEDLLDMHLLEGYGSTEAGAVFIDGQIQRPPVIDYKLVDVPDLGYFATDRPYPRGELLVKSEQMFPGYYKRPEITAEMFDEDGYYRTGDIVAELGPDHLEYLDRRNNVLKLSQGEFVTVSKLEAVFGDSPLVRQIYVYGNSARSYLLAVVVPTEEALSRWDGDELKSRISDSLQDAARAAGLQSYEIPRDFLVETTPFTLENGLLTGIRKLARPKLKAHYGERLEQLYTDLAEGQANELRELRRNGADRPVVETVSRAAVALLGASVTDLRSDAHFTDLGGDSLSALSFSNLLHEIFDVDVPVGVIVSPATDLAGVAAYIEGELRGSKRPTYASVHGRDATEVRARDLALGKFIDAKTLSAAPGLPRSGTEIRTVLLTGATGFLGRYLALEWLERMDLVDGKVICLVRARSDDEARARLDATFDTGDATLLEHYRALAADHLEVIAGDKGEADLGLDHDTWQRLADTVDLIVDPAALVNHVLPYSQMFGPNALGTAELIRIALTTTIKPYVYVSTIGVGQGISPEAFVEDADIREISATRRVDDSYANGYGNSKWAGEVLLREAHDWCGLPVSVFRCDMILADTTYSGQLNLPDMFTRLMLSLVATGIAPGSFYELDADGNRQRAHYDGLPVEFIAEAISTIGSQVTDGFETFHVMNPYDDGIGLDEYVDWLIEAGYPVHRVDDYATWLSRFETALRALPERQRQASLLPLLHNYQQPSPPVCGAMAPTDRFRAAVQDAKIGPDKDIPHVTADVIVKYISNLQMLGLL

[7] = molecular target: T3, Mycobacterium smegmatis carboxylate reductase MSMEG_5739, SEQ ID NO: 37 (Mycolicibacterium smegmatis, UniProt A0R484); test: as above
T3 sequence (A0R484 1-1173): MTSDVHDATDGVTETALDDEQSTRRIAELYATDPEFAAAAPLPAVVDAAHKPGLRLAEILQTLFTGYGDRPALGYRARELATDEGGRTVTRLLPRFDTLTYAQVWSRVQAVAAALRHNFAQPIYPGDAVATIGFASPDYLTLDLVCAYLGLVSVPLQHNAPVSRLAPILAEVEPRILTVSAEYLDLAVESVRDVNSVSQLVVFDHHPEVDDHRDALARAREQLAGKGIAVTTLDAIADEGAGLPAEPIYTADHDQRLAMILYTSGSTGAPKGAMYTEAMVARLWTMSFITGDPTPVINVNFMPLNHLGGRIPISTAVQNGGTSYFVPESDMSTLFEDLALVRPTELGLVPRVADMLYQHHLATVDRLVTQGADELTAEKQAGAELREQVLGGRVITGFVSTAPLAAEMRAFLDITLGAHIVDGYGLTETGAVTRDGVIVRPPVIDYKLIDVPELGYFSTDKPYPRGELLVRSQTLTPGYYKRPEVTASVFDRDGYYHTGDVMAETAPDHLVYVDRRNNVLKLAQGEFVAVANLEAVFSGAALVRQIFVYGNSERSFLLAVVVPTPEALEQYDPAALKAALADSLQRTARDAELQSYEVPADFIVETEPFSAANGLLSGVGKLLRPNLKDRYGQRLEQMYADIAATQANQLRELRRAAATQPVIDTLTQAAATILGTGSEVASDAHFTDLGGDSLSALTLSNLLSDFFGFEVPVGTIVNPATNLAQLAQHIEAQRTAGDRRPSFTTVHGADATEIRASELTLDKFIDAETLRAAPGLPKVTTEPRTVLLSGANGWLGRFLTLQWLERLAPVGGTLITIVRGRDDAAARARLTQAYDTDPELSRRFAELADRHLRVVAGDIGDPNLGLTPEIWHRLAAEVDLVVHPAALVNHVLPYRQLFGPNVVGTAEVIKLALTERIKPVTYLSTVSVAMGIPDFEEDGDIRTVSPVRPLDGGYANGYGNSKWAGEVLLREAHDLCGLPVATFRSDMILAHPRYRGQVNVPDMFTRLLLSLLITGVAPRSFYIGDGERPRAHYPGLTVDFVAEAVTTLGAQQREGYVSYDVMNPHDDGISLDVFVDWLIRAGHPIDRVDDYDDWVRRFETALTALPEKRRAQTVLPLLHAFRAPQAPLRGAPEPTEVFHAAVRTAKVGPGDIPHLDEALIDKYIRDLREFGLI

[8] = AR reductase activity, NAD(P)H oxidation at 340 nm; format: biochemical; details: 10 mM, ND = no activity was detected
Experimental: as §4

[9] = adipaldehyde, cofactor NADH, 1,8% DMSO

Bacillus coagulans 36D1 2-enoate reductase EREDBC, SEQ ID NO: 1, sequence (A0AAN0T7I1 entry or part of it): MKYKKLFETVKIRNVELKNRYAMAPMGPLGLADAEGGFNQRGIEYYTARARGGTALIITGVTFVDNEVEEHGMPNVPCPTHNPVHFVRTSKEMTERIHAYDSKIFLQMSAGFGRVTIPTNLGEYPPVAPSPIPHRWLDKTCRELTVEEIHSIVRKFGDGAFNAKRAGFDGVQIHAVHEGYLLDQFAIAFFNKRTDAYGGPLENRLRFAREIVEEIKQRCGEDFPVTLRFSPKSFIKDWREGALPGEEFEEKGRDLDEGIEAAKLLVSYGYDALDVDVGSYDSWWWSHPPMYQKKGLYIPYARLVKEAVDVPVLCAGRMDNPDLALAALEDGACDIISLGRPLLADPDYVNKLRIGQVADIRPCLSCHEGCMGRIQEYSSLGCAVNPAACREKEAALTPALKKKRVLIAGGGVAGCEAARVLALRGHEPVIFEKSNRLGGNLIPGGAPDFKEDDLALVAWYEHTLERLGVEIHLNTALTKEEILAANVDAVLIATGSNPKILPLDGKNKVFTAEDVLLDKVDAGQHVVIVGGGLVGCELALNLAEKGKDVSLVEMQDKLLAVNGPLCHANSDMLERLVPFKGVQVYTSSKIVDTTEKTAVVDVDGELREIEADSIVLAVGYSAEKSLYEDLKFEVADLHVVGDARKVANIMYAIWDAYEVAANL
Mycobacterium paratuberculosis carboxylate reductase MAP_1040c, SEQ ID NO: 38, sequence (A0ACD7BNV2 entry or part of it): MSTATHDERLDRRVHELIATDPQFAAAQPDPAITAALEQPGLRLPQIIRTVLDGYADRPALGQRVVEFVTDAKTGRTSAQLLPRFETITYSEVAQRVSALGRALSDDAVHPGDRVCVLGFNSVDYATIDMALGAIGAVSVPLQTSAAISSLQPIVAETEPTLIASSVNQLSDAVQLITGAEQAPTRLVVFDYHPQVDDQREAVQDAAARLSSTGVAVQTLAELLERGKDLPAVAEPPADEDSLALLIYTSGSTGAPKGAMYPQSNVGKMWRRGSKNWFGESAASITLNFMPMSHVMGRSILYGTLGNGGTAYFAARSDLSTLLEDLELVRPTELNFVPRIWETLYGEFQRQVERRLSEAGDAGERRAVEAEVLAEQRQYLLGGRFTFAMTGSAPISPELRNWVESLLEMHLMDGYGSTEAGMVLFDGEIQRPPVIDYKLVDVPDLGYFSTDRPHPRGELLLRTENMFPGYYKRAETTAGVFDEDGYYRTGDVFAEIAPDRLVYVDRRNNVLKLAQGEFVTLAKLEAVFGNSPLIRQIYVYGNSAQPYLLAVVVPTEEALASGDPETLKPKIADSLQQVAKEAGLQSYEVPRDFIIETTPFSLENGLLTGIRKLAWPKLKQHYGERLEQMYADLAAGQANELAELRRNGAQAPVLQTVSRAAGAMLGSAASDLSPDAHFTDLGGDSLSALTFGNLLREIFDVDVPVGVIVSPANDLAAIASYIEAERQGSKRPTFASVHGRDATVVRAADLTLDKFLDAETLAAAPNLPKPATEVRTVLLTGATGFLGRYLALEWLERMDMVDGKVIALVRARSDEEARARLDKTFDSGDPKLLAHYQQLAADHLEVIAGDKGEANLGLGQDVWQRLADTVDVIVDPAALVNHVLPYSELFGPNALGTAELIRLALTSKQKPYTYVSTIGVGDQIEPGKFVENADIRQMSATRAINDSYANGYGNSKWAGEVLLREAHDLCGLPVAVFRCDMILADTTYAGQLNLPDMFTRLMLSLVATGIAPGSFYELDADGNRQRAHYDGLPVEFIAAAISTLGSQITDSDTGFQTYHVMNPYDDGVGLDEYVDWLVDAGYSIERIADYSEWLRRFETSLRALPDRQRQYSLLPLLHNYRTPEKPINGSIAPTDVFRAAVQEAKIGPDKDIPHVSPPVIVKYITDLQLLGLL

Compound: O=C(O)C=CCCC(=O)O (racemic) [2-hexenedioic acid, 2-Hexenedioic acid]
- saturation by substrate [1]: no saturation
- fold higher catalytic efficiency (kcat/Km) of EREDBC compared to EREDCA ([2]; 2-hexenedioic acid in 0.25 mM isopropanol, 2.5 to 35 mM): 14.6 fold
- saturation by substrate [2]: no saturation

Compound: CC1=CC(=O)CCC1 [3-methyl-2-cyclohexenone, 3-Methyl-2-cyclohexenone]
- saturation by substrate [2]: no saturation

Compound: O=CCCCCC=O [adipaldehyde]
- Km [3, 9]: 6.89 ± 1.38 mM
- kcat [3, 9]: 3.67 ± 0.31 s⁻¹
- kcat/Km [3, 9]: (5.33 ± 0.45) × ×10^2 M^−1 · s^−1

Compound: Rsp3534: aminotransferase (AT) from Rhodobacter sphaeroides
- Adipaldehyde 10 mM U/mg [4]: 0.034 ± 0.005 U/mg

Compound: O=C(O)CCCCCO [6-hydroxyhexanoic acid]
- kcat [5]: 2.91 ± 0.19 s⁻¹
- kcat/Km [5]: 41.58 ± 2.77 M⁻¹ s⁻¹

Compound: O=C(O)CCCCC(=O)O [adipic acid]
- kcat [6]: 2.73 ± 0.20 s⁻¹
- kcat/Km [6]: 25.2 ± 1.83 M⁻¹ s⁻¹
- Km [7]: 87.5 ± 16.2 mM
- kcat [7]: 2.40 ± 0.26 s⁻¹

- Km ([3]; butyraldehyde, cofactor NADH): 14.3 ± 0.88 mM
- kcat ([3]; butyraldehyde, cofactor NADH): 25.77 ± 0.88 s⁻¹
- kcat/Km ([3]; butyraldehyde, cofactor NADH): (1.80 ± 0.06) × ×10^3 M^−1 · s^−1
- Km ([3]; butyraldehyde, cofactor NADPH): 1.53 ± 0.39 mM
- kcat ([3]; butyraldehyde, cofactor NADPH): 1.28 ± 0.09 s⁻¹
- kcat/Km ([3]; butyraldehyde, cofactor NADPH): (8.37 ± 0.59) × ×10^2 M^−1 · s^−1
Compound: CCCC=O [butyraldehyde]

Compound: RHA1_ro05279: aldehyde reductase (AR) from Rhodococcus jostii
- Activity [U/mg protein] Adipaldehyde ([8]; 1.8% DMSO): 0.721 ± 0.026 U/mg protein
- Activity [U/mg protein] Butyraldehyde [8]: 0.905 ± 0.834 U/mg protein

Compound: O=C1C=CCCC1 [2-cyclohexen-1-one, 2-Cyclohexen-1-one]
- saturation by substrate [2]: no saturation

Source: patent publication US12371675B2, “Process and microorganism for synthesis of adipic acid from carboxylic acids” (THE GOVERNING COUNCIL OF THE UNIVERSITY OF TORONTO, priority 2015, dated 2025)
